Results published in patent US11401271B2, “Fused heterocyclic compound, pyrazole-ring-containing fused heterocyclic compound, agricultural composition containing thereof, and method of using the composition” (SOUTH CHINA AGRICULTURAL UNIVERSITY, priority 2017, dated 2022).

Tests used:
Assay in all cases: whole plant or invertebrate
Format in all cases: in vivo
Solenopsis invicta = details: 100 ppm, water test tube poison-feeding
In short: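 Mortality (%) of Solenopsis invicta, computed against live counts in control tubes, was recorded 24 h and 72 h after treatment at 25 °C. Compound was offered by oral feeding in test tubes at 100 ppm, diluted from a 10 g/L DMSO stock into water with 5% honey and 0.05% Tween-80.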

Aphis craccivora = details: 500 ppm; wingless adults, immersion 5 seconds, counted after 24 hours
In short: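 Mortality scored 24 h after treatment as the reduction in live aphids versus a 0.05% Tween-80 control; three replicates, 23° C. Treatment was a 5 s immersion of wingless adults on bean sprouts in 500 ppm test solution containing 0.05% Tween-80, followed by air-drying.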

Spodoptera exigua = details: 500 ppm; 2nd-instar larvae, leaf immersion feeding
In short: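 Leaf immersion feeding: second-instar larvae (about 35 per vessel, triplicate) kept at 28° C on discs treated with 500 ppm test solution in 0.05% Tween-80. Mortality at 24 h, calculated relative to surviving larvae in the solvent control.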

Plutella xylostella = details: 500 ppm; 2nd-instar larvae, leaf immersion feeding
In short: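 Leaf immersion feeding test: 2nd-instar larvae (about 35 per vessel, 3 replicates) kept at 28° C. on 1.0 cm cabbage discs soaked 5 s in a 500 ppm solution with 0.05% Tween-80. Mortality after 24 h of exposure, calculated relative to live larvae in the Tween-80 control.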

N#Cc1nn2c(c1[S+]([O-])C(F)(F)F)NC(C(=O)C(F)(F)F)c1cc(C(F)(F)F)cc(Cl)c1-2 (stereo not drawn) [d-81]
Solenopsis invicta Mortality (%) 24 h (Solenopsis invicta): 35% | Solenopsis invicta Mortality (%) 72 h (Solenopsis invicta): 100% | Aphis craccivora Mortality (%) (Aphis craccivora): 100% | Spodoptera exigua Mortality (%) (Spodoptera exigua): 90% | Plutella xylostella Mortality (%) (Plutella xylostella): 99%

N#Cc1nn2c(c1[S+]([O-])C(F)(F)F)NC(C#N)c1cc(C(F)(F)F)cc(Cl)c1-2 (stereo not drawn) [d-82]
Solenopsis invicta Mortality (%) 24 h (Solenopsis invicta): 25% | Solenopsis invicta Mortality (%) 72 h (Solenopsis invicta): 90% | Aphis craccivora Mortality (%) (Aphis craccivora): 100% | Spodoptera exigua Mortality (%) (Spodoptera exigua): 89% | Plutella xylostella Mortality (%) (Plutella xylostella): 95%

N#Cc1nn2c(c1[S+]([O-])C(F)(F)F)NC(CC(F)(F)F)c1cc(C(F)(F)F)cc(Cl)c1-2 (stereo not drawn) [d-85]
Solenopsis invicta Mortality (%) 24 h (Solenopsis invicta): 30% | Solenopsis invicta Mortality (%) 72 h (Solenopsis invicta): 100% | Aphis craccivora Mortality (%) (Aphis craccivora): 100% | Spodoptera exigua Mortality (%) (Spodoptera exigua): 100% | Plutella xylostella Mortality (%) (Plutella xylostella): 100%

N#Cc1nn2c(c1[S+]([O-])C(F)(F)F)NC(Cl)c1cc(C(F)(F)F)cc(Cl)c1-2 (stereo not drawn) [d-90]
Solenopsis invicta Mortality (%) 24 h (Solenopsis invicta): 16% | Solenopsis invicta Mortality (%) 72 h (Solenopsis invicta): 85% | Aphis craccivora Mortality (%) (Aphis craccivora): 90% | Spodoptera exigua Mortality (%) (Spodoptera exigua): 80% | Plutella xylostella Mortality (%) (Plutella xylostella): 82%

COC(=O)CC1Nc2c([S+]([O-])C(F)(F)F)c(C(F)(F)F)nn2-c2c(Cl)cc(C(F)(F)F)cc21 (stereo not drawn) [d-98]
Solenopsis invicta Mortality (%) 24 h (Solenopsis invicta): 20% | Solenopsis invicta Mortality (%) 72 h (Solenopsis invicta): 99% | Aphis craccivora Mortality (%) (Aphis craccivora): 100% | Spodoptera exigua Mortality (%) (Spodoptera exigua): 100% | Plutella xylostella Mortality (%) (Plutella xylostella): 100%

O=C(CC1Nc2c([S+]([O-])C(F)(F)F)c(C(F)(F)F)nn2-c2c(Cl)cc(C(F)(F)F)cc21)C(F)(F)F (stereo not drawn) [d-103]
Solenopsis invicta Mortality (%) 24 h (Solenopsis invicta): 26% | Solenopsis invicta Mortality (%) 72 h (Solenopsis invicta): 93% | Aphis craccivora Mortality (%) (Aphis craccivora): 100% | Spodoptera exigua Mortality (%) (Spodoptera exigua): 98% | Plutella xylostella Mortality (%) (Plutella xylostella): 100%

[O-][S+](c1c(C(F)(F)F)nn2c1NC(C(F)(F)F)c1cc(C(F)(F)F)cc(Cl)c1-2)C(F)(F)F (stereo not drawn) [d-107]
Solenopsis invicta Mortality (%) 24 h (Solenopsis invicta): 24% | Solenopsis invicta Mortality (%) 72 h (Solenopsis invicta): 100% | Aphis craccivora Mortality (%) (Aphis craccivora): 100% | Spodoptera exigua Mortality (%) (Spodoptera exigua): 100% | Plutella xylostella Mortality (%) (Plutella xylostella): 100%

CNC(=O)C1Nc2c([S+]([O-])C(F)(F)F)c(C(F)(F)F)nn2-c2c(Cl)cc(C(F)(F)F)cc21 (stereo not drawn) [d-109]
Solenopsis invicta Mortality (%) 24 h (Solenopsis invicta): 28% | Solenopsis invicta Mortality (%) 72 h (Solenopsis invicta): 85% | Aphis craccivora Mortality (%) (Aphis craccivora): 99% | Spodoptera exigua Mortality (%) (Spodoptera exigua): 85% | Plutella xylostella Mortality (%) (Plutella xylostella): 96%

CC(=O)C1Nc2c([S+]([O-])C(F)(F)F)c(C(F)(F)F)nn2-c2c(Cl)cc(C(F)(F)F)cc21 (stereo not drawn) [d-112]
Solenopsis invicta Mortality (%) 24 h (Solenopsis invicta): 36% | Solenopsis invicta Mortality (%) 72 h (Solenopsis invicta): 99% | Aphis craccivora Mortality (%) (Aphis craccivora): 100% | Spodoptera exigua Mortality (%) (Spodoptera exigua): 80% | Plutella xylostella Mortality (%) (Plutella xylostella): 96%

[O-][S+](c1c(C(F)(F)F)nn2c1NC(Br)c1cc(C(F)(F)F)cc(Cl)c1-2)C(F)(F)F (stereo not drawn) [d-114]
Solenopsis invicta Mortality (%) 24 h (Solenopsis invicta): 24% | Solenopsis invicta Mortality (%) 72 h (Solenopsis invicta): 90% | Aphis craccivora Mortality (%) (Aphis craccivora): 100% | Spodoptera exigua Mortality (%) (Spodoptera exigua): 87% | Plutella xylostella Mortality (%) (Plutella xylostella): 100%

CC=CC1Nc2c([S+]([O-])C(F)(F)F)c(C(F)(F)F)nn2-c2c(Cl)cc(C(F)(F)F)cc21 (stereo not drawn) [d-119]
Solenopsis invicta Mortality (%) 24 h (Solenopsis invicta): 26% | Solenopsis invicta Mortality (%) 72 h (Solenopsis invicta): 83% | Aphis craccivora Mortality (%) (Aphis craccivora): 92% | Spodoptera exigua Mortality (%) (Spodoptera exigua): 90% | Plutella xylostella Mortality (%) (Plutella xylostella): 89%

COC(=O)C(C)C1Nc2c(OC(F)(F)F)c(C#N)nn2-c2c(Cl)cc(C(F)(F)F)cc21 (stereo not drawn) [d-122]
Solenopsis invicta Mortality (%) 24 h (Solenopsis invicta): 24% | Solenopsis invicta Mortality (%) 72 h (Solenopsis invicta): 95% | Aphis craccivora Mortality (%) (Aphis craccivora): 90% | Spodoptera exigua Mortality (%) (Spodoptera exigua): 84% | Plutella xylostella Mortality (%) (Plutella xylostella): 91%

N#Cc1nn2c(c1OC(F)(F)F)NC(C(=O)C(F)(F)F)c1cc(C(F)(F)F)cc(Cl)c1-2 (stereo not drawn) [d-127]
Solenopsis invicta Mortality (%) 24 h (Solenopsis invicta): 20% | Solenopsis invicta Mortality (%) 72 h (Solenopsis invicta): 97% | Aphis craccivora Mortality (%) (Aphis craccivora): 100% | Spodoptera exigua Mortality (%) (Spodoptera exigua): 100% | Plutella xylostella Mortality (%) (Plutella xylostella): 96%

N#CCC1Nc2c(OC(F)(F)F)c(C#N)nn2-c2c(Cl)cc(C(F)(F)F)cc21 (stereo not drawn) [d-129]
Solenopsis invicta Mortality (%) 24 h (Solenopsis invicta): 24% | Solenopsis invicta Mortality (%) 72 h (Solenopsis invicta): 100% | Aphis craccivora Mortality (%) (Aphis craccivora): 100% | Spodoptera exigua Mortality (%) (Spodoptera exigua): 100% | Plutella xylostella Mortality (%) (Plutella xylostella): 95%

CNC(=O)CC1Nc2c(OC(F)(F)F)c(C#N)nn2-c2c(Cl)cc(C(F)(F)F)cc21 (stereo not drawn) [d-133]
Solenopsis invicta Mortality (%) 24 h (Solenopsis invicta): 21% | Solenopsis invicta Mortality (%) 72 h (Solenopsis invicta): 95% | Aphis craccivora Mortality (%) (Aphis craccivora): 100% | Spodoptera exigua Mortality (%) (Spodoptera exigua): 86% | Plutella xylostella Mortality (%) (Plutella xylostella): 70%

CC(C)C1Nc2c(OC(F)(F)F)c(C#N)nn2-c2c(Cl)cc(C(F)(F)F)cc21 (stereo not drawn) [d-141]
Solenopsis invicta Mortality (%) 24 h (Solenopsis invicta): 11% | Solenopsis invicta Mortality (%) 72 h (Solenopsis invicta): 91% | Aphis craccivora Mortality (%) (Aphis craccivora): 100% | Spodoptera exigua Mortality (%) (Spodoptera exigua): 95% | Plutella xylostella Mortality (%) (Plutella xylostella): 90%

COC(=O)CC1(C(=O)OC)Nc2c([S+]([O-])C(F)(F)F)c(C#N)nn2-c2c(C(F)(F)F)ccc(Cl)c21 (stereo not shown) [e-1]
Solenopsis invicta Mortality (%) 24 h (Solenopsis invicta): 33% | Solenopsis invicta Mortality (%) 72 h (Solenopsis invicta): 100% | Aphis craccivora Mortality (%) (Aphis craccivora): 100% | Spodoptera exigua Mortality (%) (Spodoptera exigua): 100% | Plutella xylostella Mortality (%) (Plutella xylostella): 100%

CCOC(=O)CC1(C(=O)OC)Nc2c([S+]([O-])C(F)(F)F)c(C#N)nn2-c2c(C(F)(F)F)ccc(Cl)c21 (stereo not shown) [e-2]
Solenopsis invicta Mortality (%) 24 h (Solenopsis invicta): 25% | Solenopsis invicta Mortality (%) 72 h (Solenopsis invicta): 100% | Aphis craccivora Mortality (%) (Aphis craccivora): 100% | Spodoptera exigua Mortality (%) (Spodoptera exigua): 100% | Plutella xylostella Mortality (%) (Plutella xylostella): 100%

COC(=O)C1(CC(=O)OCC(F)(F)F)Nc2c([S+]([O-])C(F)(F)F)c(C#N)nn2-c2c(C(F)(F)F)ccc(Cl)c21 (stereo not shown) [e-3]
Solenopsis invicta Mortality (%) 24 h (Solenopsis invicta): 20% | Solenopsis invicta Mortality (%) 72 h (Solenopsis invicta): 98% | Aphis craccivora Mortality (%) (Aphis craccivora): 100% | Spodoptera exigua Mortality (%) (Spodoptera exigua): 95% | Plutella xylostella Mortality (%) (Plutella xylostella): 100%

COC(=O)C1(CC(=O)OCC(F)F)Nc2c([S+]([O-])C(F)(F)F)c(C#N)nn2-c2c(C(F)(F)F)ccc(Cl)c21 (stereo not shown) [e-4]
Solenopsis invicta Mortality (%) 24 h (Solenopsis invicta): 32% | Solenopsis invicta Mortality (%) 72 h (Solenopsis invicta): 100% | Aphis craccivora Mortality (%) (Aphis craccivora): 100% | Spodoptera exigua Mortality (%) (Spodoptera exigua): 100% | Plutella xylostella Mortality (%) (Plutella xylostella): 100%

CCOC(=O)CC1(C(=O)OCC)Nc2c([S+]([O-])C(F)(F)F)c(C#N)nn2-c2c(C(F)(F)F)ccc(Cl)c21 (stereo not shown) [e-5]
Solenopsis invicta Mortality (%) 24 h (Solenopsis invicta): 34% | Solenopsis invicta Mortality (%) 72 h (Solenopsis invicta): 100% | Aphis craccivora Mortality (%) (Aphis craccivora): 100% | Spodoptera exigua Mortality (%) (Spodoptera exigua): 100% | Plutella xylostella Mortality (%) (Plutella xylostella): 100%

CCOC(=O)C1(CC(=O)OC)Nc2c([S+]([O-])C(F)(F)F)c(C#N)nn2-c2c(C(F)(F)F)ccc(Cl)c21 (stereo not shown) [e-6]
Solenopsis invicta Mortality (%) 24 h (Solenopsis invicta): 34% | Solenopsis invicta Mortality (%) 72 h (Solenopsis invicta): 100% | Aphis craccivora Mortality (%) (Aphis craccivora): 100% | Spodoptera exigua Mortality (%) (Spodoptera exigua): 100% | Plutella xylostella Mortality (%) (Plutella xylostella): 100%

COC(=O)CC1(C(=O)OC)Nc2c([S+]([O-])C(F)(F)F)c(C#N)nn2-c2ccc(C(F)(F)F)c(Cl)c21 (stereo not shown) [e-7]
Solenopsis invicta Mortality (%) 24 h (Solenopsis invicta): 29% | Solenopsis invicta Mortality (%) 72 h (Solenopsis invicta): 99% | Aphis craccivora Mortality (%) (Aphis craccivora): 100% | Spodoptera exigua Mortality (%) (Spodoptera exigua): 100% | Plutella xylostella Mortality (%) (Plutella xylostella): 100%
